# Data as given in US11407736B2 (priority 2019, dated 2022).
# Read-outs that look alike come from different tables or passages of the source.
# Columns and labels:
# RIPK1 = RIPK1 (Homo sapiens (Human), UniProt Q13546); experiment: RIPK1 ADP-Glo biochemical kinase assay
# Method: The final reaction volume was 5.0ul.
# Adding 5 μl of ADP-Glo™ terminated the reaction.
# U937 cells = experiment: U937 cell necroptosis assay (TNFa + zVAD, CellTiter-Glo); format: cell-based, human; settings: Homo sapiens
# Method in brief: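 Human U937 and murine L929 cells in RPMI 1640/10% FBS were pre-incubated 1 h at 37 °C with serially diluted compound plus zVAD-fmk (U937 plated with 60 uM, L929 medium with 40 uM), then stimulated with 2 ng/mL TNFa (final). Viability read by CellTiter-Glo luminescence after 18 h.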
# L929 cells = experiment: L929 cell necroptosis assay (TNFa + zVAD, CellTiter-Glo); format: cell-based, murine; settings: Mus musculus
# Method in brief: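 Murine L929 cells, plated 18 h beforehand at 10K cells/well in RPMI 1640 with 10% FBS, were switched to medium containing 40 uM zVAD-fmk and given compound from 4-fold serial dilutions. Viability after 18 h of TNFa stimulation at 37° C was read by CellTiter-Glo luminescence.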
# [1] = read-out: RIPK1 ADP-Glo Kinase (IC50)
# [2] = U-937, U937 cells, TNFa + zVAD, read-out: U937 Zvad TNF CTG Recovery, U937, TNFa + zVAD (IC50)
# [3] = L929, L929 cells, TNFa + zVAD, read-out: L929-CTG-recovery, L929, TNFa + zVAD (IC50)
# Chain of RIPK1 (Q13546 whole entry, species assumed): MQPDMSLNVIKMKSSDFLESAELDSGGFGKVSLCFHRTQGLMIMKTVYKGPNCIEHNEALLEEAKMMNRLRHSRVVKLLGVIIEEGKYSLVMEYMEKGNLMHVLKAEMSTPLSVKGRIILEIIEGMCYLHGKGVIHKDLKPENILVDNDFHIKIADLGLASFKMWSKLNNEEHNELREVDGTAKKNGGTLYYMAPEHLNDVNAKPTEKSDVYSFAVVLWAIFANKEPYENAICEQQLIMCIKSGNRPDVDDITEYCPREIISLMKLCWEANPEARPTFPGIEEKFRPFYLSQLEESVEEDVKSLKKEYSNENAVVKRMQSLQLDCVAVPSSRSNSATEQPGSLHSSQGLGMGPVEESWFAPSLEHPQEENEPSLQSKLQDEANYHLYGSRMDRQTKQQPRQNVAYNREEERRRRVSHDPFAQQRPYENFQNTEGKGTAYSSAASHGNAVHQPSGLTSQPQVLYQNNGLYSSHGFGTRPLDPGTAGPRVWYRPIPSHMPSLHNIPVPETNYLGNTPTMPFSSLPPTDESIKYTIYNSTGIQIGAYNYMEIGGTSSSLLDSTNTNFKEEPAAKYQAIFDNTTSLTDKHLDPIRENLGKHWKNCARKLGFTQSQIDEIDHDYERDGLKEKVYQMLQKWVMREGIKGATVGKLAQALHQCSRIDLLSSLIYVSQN
SMILES,IC50 (RIPK1; [1]),IC50 (U937 cells; [2]),IC50 (L929 cells; [3]),"IC50 (U937 cells; U-937, read-out: U937 Zvad TNF CTG Recovery, U937, TNFa + zVAD (IC50), U937 cells, TNFa + zVAD)","IC50 (L929 cells; L929, read-out: L929-CTG-recovery, L929, TNFa + zVAD (IC50), L929 cells, TNFa + zVAD)",IC50 (RIPK1)
"CN1C(=O)[C@@H](NC(=O)c2cc(Oc3ccc(C#N)cc3)ccn2)COc2ccc(C#CC3(O)COC3)cc21 [II-19, (S)-4-(4-cyanophenoxy)-N-(7-((3-hydroxyoxetan-3-yl)ethynyl)-5-methyl-4-oxo-2,3,4,5-tetrahydrobenzo[b][1,4]oxazepin-3-yl)picolinamide]",34.9 nM,,,55.5 nM,2890 nM,
"CN1C(=O)[C@@H](NC(=O)c2ncn(Cc3c(Cl)cccc3Cl)n2)COc2ccc(CN3CCN(c4ccncc4)CC3)cc21 [Compound I-21, (S)-1-(2,6-dichlorobenzyl)-N-(5-methyl-4-oxo-7-((4-(pyridin-4-yl)piperazin-1-yl)methyl)-2,3,4,5-tetrahydrobenzo[b][1,4]oxazepin-3-yl)-1H-1,2,4-triazole-3-carboxamide]",77 nM,2.5 nM,1310 nM,,,
"CC(=O)O[C@@H](C(=O)O)[C@@H](OC(C)=O)C(=O)OCC(C)(C)C#Cc1ccc2c(c1)N(C)C(=O)[C@@H](NC(=O)c1cc(Oc3ccccc3)ccn1)CO2 [Compound I-145, (2R,3R)-2,3-diacetoxy-4-((2,2-dimethyl-4-((S)-5-methyl-4-oxo-3-(4-phenoxypicolinamido)-2,3,4,5-tetrahydrobenzo[b][1,4]oxazepin-7-yl)but-3-yn-1-yl)oxy)-4-oxobutanoic acid]",27.5 nM,8.6 nM,3050 nM,,,
"CN1C(=O)[C@@H](NC(=O)c2n[nH]c(Cc3ccccc3)n2)COc2ccc(CCC(=O)Nc3ccc4cn[nH]c4c3)cc21 [Compound I-3, (S)—N-(7-(3-((1H-indazol-6-yl)amino)-3-oxopropyl)-5-methyl-4-oxo-2,3,4,5-tetrahydrobenzo[b][1,4]oxazepin-3-yl)-5-benzyl-1H-1,2,4-triazole-3-carboxamide]",40.2 nM,4.9 nM,428 nM,,,
"CN1C(=O)[C@@H](NC(=O)c2ncn(Cc3ccccc3)n2)COc2ccc(C#CC3(O)CCCC3)cc21 [Compound I-52, (S)-1-benzyl-N-(7-((1-hydroxycyclopentyl)ethynyl)-5-methyl-4-oxo-2,3,4,5-tetrahydrobenzo[b][1,4]oxazepin-3-yl)-1H-1,2,4-triazole-3-carboxamide]",24.9 nM,0.9 nM,0.3 nM,,,
"CN1C(=O)[C@@H](NC(=O)c2cc(Oc3ccccc3)ccn2)COc2cc(C#CC(C)(C)O)ccc21 [Compound I-64, (S)—N-(8-(3-hydroxy-3-methylbut-1-yn-1-yl)-5-methyl-4-oxo-2,3,4,5-tetrahydrobenzo[b][1,4]oxazepin-3-yl)-4-phenoxypicolinamide]",19 nM,0.5 nM,0.1 nM,,,
"CN1C(=O)[C@@H](NC(=O)c2cc(Oc3ccccc3)ccn2)COc2ccc(CN3CCC4(CCOCC4)CC3)cc21 [Compound I-149, (S)—N-(7-((3-oxa-9-azaspiro[5.5]undecan-9-yl)methyl)-5-methyl-4-oxo-2,3,4,5-tetrahydrobenzo[b][1,4]oxazepin-3-yl)-4-phenoxypicolinamide]",,30 nM,11600 nM,,,39.6 nM
"Cc1cccc(C)c1Cn1cnc(C(=O)N[C@H]2COc3ccc(C#CC(C)(C)O)cc3N(C)C2=O)n1 [Compound I-84, (S)-1-(2,6-dimethylbenzyl)-N-(7-(3-hydroxy-3-methylbut-1-yn-1-yl)-5-methyl-4-oxo-2,3,4,5-tetrahydrobenzo[b][1,4]oxazepin-3-yl)-1H-1,2,4-triazole-3-carboxamide]",44.1 nM,56.3 nM,12.2 nM,,,
"CN1C(=O)[C@@H](NC(=O)c2ncn(Cc3ccccc3F)n2)COc2ccc(CCC(=O)Nc3ccc4cn[nH]c4c3)cc21 [Compound I-7, (S)—N-(7-(3-((1H-indazol-6-yl)amino)-3-oxopropyl)-5-methyl-4-oxo-2,3,4,5-tetrahydrobenzo[b][1,4]oxazepin-3-yl)-1-(2-fluorobenzyl)-1H-1,2,4-triazole-3-carboxamide]",21 nM,0.9 nM,1960 nM,,,
"CN1C(=O)[C@@H](NC(=O)c2cc(Oc3ccccc3)ccn2)COc2ccc(C#CC(C)(C)N3CCOCC3)cc21 [Compound I-206, (S)—N-(5-Methyl-7-(3-methyl-3-morpholinobut-1-yn-1-yl)-4-oxo-2,3,4,5-tetrahydrobenzo[b][1,4]oxazepin-3-yl)-4-phenoxypicolinamide]",,0.6 nM,41.5 nM,,,55.6 nM

# The remaining molecules from weak to strong by IC50 (RIPK1; [1]), led by results:
IC50 (RIPK1; [1]),SMILES,IC50 (U937 cells; [2]),IC50 (L929 cells; [3]),"IC50 (U937 cells; U-937, read-out: U937 Zvad TNF CTG Recovery, U937, TNFa + zVAD (IC50), U937 cells, TNFa + zVAD)","IC50 (L929 cells; L929, read-out: L929-CTG-recovery, L929, TNFa + zVAD (IC50), L929 cells, TNFa + zVAD)",IC50 (RIPK1)
932 nM,"CCN1C(=O)[C@@H](NC(=O)c2n[nH]c(Cc3cccc(F)c3)n2)COc2ccc(C#CC(C)(C)O)cc21 [Compound I-92, (S)—N-(5-ethyl-7-(3-hydroxy-3-methylbut-1-yn-1-yl)-4-oxo-2,3,4,5-tetrahydrobenzo[b][1,4]oxazepin-3-yl)-5-(3-fluorobenzyl)-1H-1,2,4-triazole-3-carboxamide]",4840 nM,430 nM,,,
85.4 nM,"CN1C(=O)[C@@H](NC(=O)c2n[nH]c(Cc3ccc(F)cc3F)n2)COc2ccc(C#CC(C)(C)O)cc21 [Compound I-43, (S)-5-(2,4-difluorobenzyl)-N-(7-(3-hydroxy-3-methylbut-1-yn-1-yl)-5-methyl-4-oxo-2,3,4,5-tetrahydrobenzo[b][1,4]oxazepin-3-yl)-1H-1,2,4-triazole-3-carboxamide]",3.8 nM,0.9 nM,,,
57.1 nM,"CN1C(=O)[C@@H](NC(=O)c2n[nH]c(Cc3ccccc3)n2)COc2ccc(CCC(=O)N3CCOCC3)cc21 [Compound I-11, (S)-5-benzyl-N-(5-methyl-7-(3-morpholino-3-oxopropyl)-4-oxo-2,3,4,5-tetrahydrobenzo[b][1,4]oxazepin-3-yl)-1H-1,2,4-triazole-3-carboxamide]",8.1 nM,14100 nM,,,
35.7 nM,"CN1C(=O)[C@@H](NC(=O)c2cc(Oc3ccccc3)ccn2)COc2ccc(C#CC3(O)CCOCC3)cc21 [Compound I-123, (S)—N-(7-((4-hydroxytetrahydro-2H-pyran-4-yl)ethynyl)-5-methyl-4-oxo-2,3,4,5-tetrahydrobenzo[b][1,4]oxazepin-3-yl)-4-phenoxypicolinamide]",0.6 nM,53.5 nM,,,
35.5 nM,"CN1C(=O)[C@@H](NC(=O)c2ncn(Cc3ccccc3)n2)COc2cc(C#CC(C)(C)O)ccc21 [Compound I-62, (S)-1-benzyl-N-(8-(3-hydroxy-3-methylbut-1-yn-1-yl)-5-methyl-4-oxo-2,3,4,5-tetrahydrobenzo[b][1,4]oxazepin-3-yl)-1H-1,2,4-triazole-3-carboxamide]",2 nM,0.7 nM,,,
34 nM,"CN1C(=O)[C@@H](NC(=O)c2n[nH]c(Cc3ccccc3)n2)COc2ccc(C#CC3(O)CCCC3)cc21 [Compound I-53, (S)-5-benzyl-N-(7-((1-hydroxycyclopentyl)ethynyl)-5-methyl-4-oxo-2,3,4,5-tetrahydrobenzo[b][1,4]oxazepin-3-yl)-1H-1,2,4-triazole-3-carboxamide]",1.8 nM,0.5 nM,,,
29.6 nM,"CN1C(=O)[C@@H](NC(=O)c2cc(Oc3ccccc3)ccn2)COc2ccc(C#CC3(O)CCC3)cc21 [Compound I-120, (S)—N-(7-((1-hydroxycyclobutyl)ethynyl)-5-methyl-4-oxo-2,3,4,5-tetrahydrobenzo[b][1,4]oxazepin-3-yl)-4-phenoxypicolinamide]",0.5 nM,61.5 nM,,,
27.6 nM,"CN1C(=O)[C@@H](NC(=O)c2cc(Oc3c(F)cccc3F)ccn2)COc2ccc(C#CC(C)(C)O)cc21 [Compound I-118, (S)-4-(2,6-difluorophenoxy)-N-(7-(3-hydroxy-3-methylbut-1-yn-1-yl)-5-methyl-4-oxo-2,3,4,5-tetrahydrobenzo[b][1,4]oxazepin-3-yl)picolinamide]",1 nM,83 nM,,,
27.3 nM,"CN1C(=O)[C@@H](NC(=O)c2cc(OC3CCCC3)ccn2)COc2ccc(C#CC(C)(C)O)cc21 [Compound I-156, (S)-4-(cyclopentyloxy)-N-(7-(3-hydroxy-3-methylbut-1-yn-1-yl)-5-methyl-4-oxo-2,3,4,5-tetrahydrobenzo[b][1,4]oxazepin-3-yl)picolinamide]",55.4 nM,10300 nM,,,
21.8 nM,"CN1C(=O)[C@@H](NC(=O)c2cc(Oc3ccc(F)cc3)ccn2)COc2ccc(C#CC3(O)COC3)cc21 [Compound I-111, (S)-4-(4-fluorophenoxy)-N-(7-((3-hydroxyoxetan-3-yl)ethynyl)-5-methyl-4-oxo-2,3,4,5-tetrahydrobenzo[b][1,4]oxazepin-3-yl)picolinamide]",3.1 nM,99.9 nM,,,
18.7 nM,"CN1C(=O)[C@@H](NC(=O)c2cc(Cc3ccccc3)on2)COc2ccc(C#CC(C)(C)O)cc21 [Compound I-87, (S)-5-benzyl-N-(7-(3-hydroxy-3-methylbut-1-yn-1-yl)-5-methyl-4-oxo-2,3,4,5-tetrahydrobenzo[b][1,4]oxazepin-3-yl)isoxazole-3-carboxamide]",138 nM,29.2 nM,,,
